Measured values: US10300031B2, “Pharmaceutical compositions for treating chronic pain and pain associated with neuropathy” (priority 2007, dated 2019)
“And” between values parts separate entries of the source, which are not always exact repeats. Equal values may be shown once. Where a name gives a salt, the structure may show the parent alone. Read-outs that look alike come from different tables or passages of the source.

Tests used:
fibromyalgia pain = test: Combination therapy in patients with fibromyalgia (Table 2, testimonies); assay type: in vivo, human; details: for Pain Relief (percent of reduction in pain), Fibromyalgia: TLI-1026 twice daily (N = 5), single agents mg/day: dextromethorphan 70, tramadol 70, gabapentin 180
diabetic neuropathy pain [1] = test: Combination therapy in patients with diabetic neuropathy (Table 2, testimonies); details: for Pain Relief (percent of reduction in pain), Diabetic Neuropathy: TLI-1026 twice daily (N = 5), single agents mg/day: dextromethorphan 70, tramadol 70, gabapentin 180; for pain relief (patient or physician testimony): diabetic neuropathy patients; for side effects / tolerability: two patients with diabetic peripheral polyneuropathy
[2] = 0.2M sodium chloride; cited from earlier work
[3] = tested on: pain in diabetic neuropathy and fibromyalgia patients; test: Pooled statements on pain reduction in diabetic neuropathy and fibromyalgia patients; assay type: in vivo, human
Diabetic Neuropathy = details: Dose mg/day: dextromethorphan hydrobromide 400-480, tramadol hydrochloride 400, gabapentin 3600; cited from earlier work
Fibromyalgia = details: Dose mg/day: dextromethorphan hydrobromide 400-480, tramadol hydrochloride 400, gabapentin 3600; cited from earlier work
μ-opiate receptors = μ-opiate receptors (Homo sapiens, UniProt P35372); details: cited from earlier work
Chain of μ-opiate receptors (P35372 whole entry): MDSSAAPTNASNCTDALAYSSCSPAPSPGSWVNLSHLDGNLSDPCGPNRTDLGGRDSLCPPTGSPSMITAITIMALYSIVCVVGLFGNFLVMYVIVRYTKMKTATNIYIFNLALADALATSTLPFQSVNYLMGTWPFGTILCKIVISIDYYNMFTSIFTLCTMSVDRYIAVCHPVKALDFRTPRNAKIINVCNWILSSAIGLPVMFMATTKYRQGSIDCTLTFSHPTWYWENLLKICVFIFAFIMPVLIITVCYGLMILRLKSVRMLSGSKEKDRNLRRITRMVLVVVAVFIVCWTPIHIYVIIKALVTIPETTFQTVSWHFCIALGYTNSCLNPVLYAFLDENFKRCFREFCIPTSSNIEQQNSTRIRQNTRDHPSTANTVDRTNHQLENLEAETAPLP

[4] = cited from earlier work; for accumulation during multiple dose treatment: multiple dose treatment with tramadol
diabetic neuropathy pain [5] = details: human, in vivo
[6] = cited from earlier work
CYP1A2 = CYP1A2 (Homo sapiens, UniProt P05177); details: gabapentin concentrations up to 171 μg/mL; cited from earlier work
CYP2C9 = CYP2C9 (Homo sapiens, UniProt P11712); details: gabapentin concentrations up to 171 μg/mL; cited from earlier work
CYP2C19 = CYP2C19 (Homo sapiens, UniProt P33261); details: gabapentin concentrations up to 171 μg/mL; cited from earlier work
CYP2D6 = CYP2D6 (Homo sapiens, UniProt P10635); details: gabapentin concentrations up to 171 μg/mL; cited from earlier work
CYP2E1 = CYP2E1 (Homo sapiens, UniProt P05181); details: gabapentin concentrations up to 171 μg/mL; cited from earlier work
Chain of CYP2E1 (P05181 whole entry): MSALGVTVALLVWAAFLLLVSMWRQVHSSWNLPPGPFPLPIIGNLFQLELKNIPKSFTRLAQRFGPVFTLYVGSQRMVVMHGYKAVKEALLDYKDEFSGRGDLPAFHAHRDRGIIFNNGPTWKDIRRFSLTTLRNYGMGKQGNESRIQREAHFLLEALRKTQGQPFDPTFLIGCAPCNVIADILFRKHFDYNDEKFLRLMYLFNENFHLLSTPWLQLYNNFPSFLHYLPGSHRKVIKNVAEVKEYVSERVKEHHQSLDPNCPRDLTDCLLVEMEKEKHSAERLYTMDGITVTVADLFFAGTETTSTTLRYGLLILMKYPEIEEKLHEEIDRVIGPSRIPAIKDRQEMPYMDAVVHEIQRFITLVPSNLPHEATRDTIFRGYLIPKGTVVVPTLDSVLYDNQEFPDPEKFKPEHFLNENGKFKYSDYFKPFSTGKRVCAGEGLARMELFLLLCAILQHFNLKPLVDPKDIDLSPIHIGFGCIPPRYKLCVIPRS

CYP3A4 = CYP3A4 (Homo sapiens, UniProt P08684); details: gabapentin concentrations up to 171 μg/mL; cited from earlier work
[7] = tested on: pain (arthritis, back, cancer neuropathy, tooth, lumbar, cervical spondyolosis, knee); details: in vivo
postherpetic neuralgia = details: oral amitriptyline; cited from earlier work
[8] = tested on: painful diabetic neuropathy; details: oral amitriptyline; cited from earlier work
[9] = tested on: Na+ currents in adrenal chromaffin cells; details: read-out: IC50, peak Na+ currents; cited from earlier work
cardiac Na+ channels = cardiac Na+ channels (Homo sapiens, UniProt Q14524); details: cited from earlier work
Chain of cardiac Na+ channels (Q14524 whole entry): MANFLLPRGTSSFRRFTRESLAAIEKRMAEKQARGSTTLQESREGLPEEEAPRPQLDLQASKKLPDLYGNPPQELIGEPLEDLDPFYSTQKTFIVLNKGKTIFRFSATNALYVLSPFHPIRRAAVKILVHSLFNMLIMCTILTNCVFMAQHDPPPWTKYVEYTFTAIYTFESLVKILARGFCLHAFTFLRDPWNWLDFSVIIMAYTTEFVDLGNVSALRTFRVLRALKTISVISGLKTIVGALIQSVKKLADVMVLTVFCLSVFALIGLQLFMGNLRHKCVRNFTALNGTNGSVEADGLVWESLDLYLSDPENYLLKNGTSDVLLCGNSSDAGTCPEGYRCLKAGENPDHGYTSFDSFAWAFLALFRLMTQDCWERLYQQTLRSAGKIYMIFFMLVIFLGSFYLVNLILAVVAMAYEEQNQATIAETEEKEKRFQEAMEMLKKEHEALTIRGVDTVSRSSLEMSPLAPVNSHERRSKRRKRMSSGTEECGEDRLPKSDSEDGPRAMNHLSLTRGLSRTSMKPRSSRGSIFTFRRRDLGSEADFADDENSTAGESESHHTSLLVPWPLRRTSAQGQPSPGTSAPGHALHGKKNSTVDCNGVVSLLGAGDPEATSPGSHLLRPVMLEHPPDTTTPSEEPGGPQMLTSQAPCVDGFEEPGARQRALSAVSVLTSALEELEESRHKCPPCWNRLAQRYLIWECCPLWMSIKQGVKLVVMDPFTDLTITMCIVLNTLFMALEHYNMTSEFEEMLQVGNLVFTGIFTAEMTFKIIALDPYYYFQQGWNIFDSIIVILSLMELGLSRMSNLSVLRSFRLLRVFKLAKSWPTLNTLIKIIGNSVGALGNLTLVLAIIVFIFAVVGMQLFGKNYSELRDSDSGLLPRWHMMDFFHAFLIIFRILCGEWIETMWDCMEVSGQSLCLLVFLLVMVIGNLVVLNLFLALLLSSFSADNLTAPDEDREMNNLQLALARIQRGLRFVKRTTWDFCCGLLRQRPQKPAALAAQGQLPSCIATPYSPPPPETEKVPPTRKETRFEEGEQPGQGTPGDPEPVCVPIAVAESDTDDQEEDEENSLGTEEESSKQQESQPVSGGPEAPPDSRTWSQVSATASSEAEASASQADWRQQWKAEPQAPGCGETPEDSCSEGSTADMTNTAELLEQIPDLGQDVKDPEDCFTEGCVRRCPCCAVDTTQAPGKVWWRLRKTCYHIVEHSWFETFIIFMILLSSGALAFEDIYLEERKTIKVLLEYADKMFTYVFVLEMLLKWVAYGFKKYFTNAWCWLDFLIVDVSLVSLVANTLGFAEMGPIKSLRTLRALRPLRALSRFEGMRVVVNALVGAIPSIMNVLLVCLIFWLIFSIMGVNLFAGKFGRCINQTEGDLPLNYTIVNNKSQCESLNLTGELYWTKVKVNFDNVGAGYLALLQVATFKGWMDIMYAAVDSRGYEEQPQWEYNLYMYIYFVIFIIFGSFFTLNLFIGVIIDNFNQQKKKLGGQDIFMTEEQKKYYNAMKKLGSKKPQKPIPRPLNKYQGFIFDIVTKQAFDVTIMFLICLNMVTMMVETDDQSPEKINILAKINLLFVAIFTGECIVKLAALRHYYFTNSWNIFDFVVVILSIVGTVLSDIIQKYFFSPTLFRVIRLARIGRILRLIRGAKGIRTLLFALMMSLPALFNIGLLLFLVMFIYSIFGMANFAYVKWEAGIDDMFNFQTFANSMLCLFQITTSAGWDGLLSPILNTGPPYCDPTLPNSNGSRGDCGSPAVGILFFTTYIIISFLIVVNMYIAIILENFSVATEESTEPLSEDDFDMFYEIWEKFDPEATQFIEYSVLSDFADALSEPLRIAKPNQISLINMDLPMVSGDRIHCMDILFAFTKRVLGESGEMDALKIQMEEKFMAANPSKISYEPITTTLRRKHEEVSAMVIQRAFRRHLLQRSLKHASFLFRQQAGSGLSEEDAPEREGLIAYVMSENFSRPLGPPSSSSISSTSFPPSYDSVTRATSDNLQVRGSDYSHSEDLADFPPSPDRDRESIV

hH1 Na+ channels = hH1 Na+ channels (Homo sapiens, UniProt Q14524); details: cited from earlier work; for IC50: 0.1-100 μM
Chain of hH1 Na+ channels (Q14524 whole entry): as above

[10] = tested on: NF-κ-B activation in human myeloid ML-1a cells; details: pretreatment of ML-1a cells; dose- and time-dependent; cited from earlier work
[11] = i.v. administration, rats; cited from earlier work
[12] = oral dosing of rats, after 3 hours; cited from earlier work
[13] = 90 g cream (0.025% capsaicin) per week, 100% absorbed, 50 kg person; cited from earlier work
[14] = tested on: transient K+ channels in hippocampal neurons; details: cited from earlier work
pain score in patients = details: cited from earlier work
[15] = tested on: patients with diabetic peripheral neuropathy; details: diabetic peripheral neuropathy trials; cited from earlier work
[16] = tested on: patients with fibromyalgia; details: fibromyalgia trials, cited from earlier work

COc1ccc2c(c1)[C@]13CCCC[C@@H]1[C@H](C2)N(C)CC3
Pain Relief (percent of reduction in pain), Fibromyalgia (fibromyalgia pain): <10%
Pain Relief (percent of reduction in pain), Diabetic Neuropathy (diabetic neuropathy pain [1]): <10%

COc1ccc(C(CN(C)C)C2(O)CCCCC2)cc1 (racemic) [Venlafaxine hydrochloride, (R/S)-1-[2-(dimethylamino)-1-(4-methoxyphenyl)ethyl]cyclohexanol]
octanol:water partition coefficient [2]: 0.43

COc1cccc(C2(O)CCCCC2CN(C)C)c1 (single isomer, unassigned) [Tramadol Hydrochloride, (1R,2R or 1S,2S)-(dimethylaminomethyl)-1-(3-methoxyphenyl)-cyclohexanol]
Pain Relief (percent of reduction in pain), Fibromyalgia (fibromyalgia pain): <10%
pain relief (patient or physician testimony) (fibromyalgia pain; fibromyalgia patients): moderate relief
reduction in pain ([3]; 400 mg of tramadol per day, patients with diabetic neuropathy and fibromyalgia): 30-40%
Pain Relief (percent of reduction in pain), Diabetic Neuropathy (Diabetic Neuropathy): <35 (Sindrup 1999) percent and <35%
Pain Relief (percent of reduction in pain), Fibromyalgia (Fibromyalgia): <30 (Biasi 1998; percent
affinity for μ-opiate receptors relative to dextromethorphan (μ-opiate receptors): equivalent
affinity for μ-opiate receptors, fold less than codeine (μ-opiate receptors): 10 fold
affinity for μ-opiate receptors, fold less than d-propoxyphene (μ-opiate receptors): 100 fold
affinity for μ-opiate receptors, fold less than morphine (μ-opiate receptors): 6,000 fold
time to peak serum concentrations ([4]; after oral administration): ≤ 2 h
accumulation during multiple dose treatment [4]: approximately 2 fold
duration of the analgesic effect ([4]; single oral dose of tramadol 100 mg): about 6 hours
Pain Relief (percent of reduction in pain), Diabetic Neuropathy (diabetic neuropathy pain [1]): <10%

COc1ccc2c(c1)[C@]13CCCC[C@@H]1[C@H](C2)N(C)CC3 [Dextromethorphan Hydrobromide]
Pain Relief (percent of reduction in pain), Diabetic Neuropathy (Diabetic Neuropathy): <50 (Sang 2002) percent and <50%
Pain Relief (percent of reduction in pain), Fibromyalgia (Fibromyalgia): <40 (Staud 2005) percent

CN(C)CCC=C1c2ccccc2CCc2ccccc21 [Elavil]
side effects / tolerability (diabetic neuropathy pain [5]): substantial, negative side effects
pain relief (patient or physician testimony) (diabetic neuropathy pain [1]): no substantial pain relief

NCC1(CC(=O)O)CCCCC1 [Gabapentin]
Pain Relief (percent of reduction in pain), Fibromyalgia (fibromyalgia pain): <10%
relief from pain with prior therapy (physician testimony) ([3]; up to 1600 mg per day, patients with diabetic neuropathy or fibromyalgia): partial and marginal relief
Pain Relief (percent of reduction in pain), Diabetic Neuropathy (Diabetic Neuropathy): <50 (Marchettini percent and <50%
Pain Relief (percent of reduction in pain), Fibromyalgia (Fibromyalgia): <50 (Lesley 2007) percent
bioavailability ([6]; 900 mg/day given in 3 divided doses): approximately 60%
bioavailability ([6]; 1200 mg/day given in 3 divided doses): ~47%
bioavailability ([6]; 2400 mg/day given in 3 divided doses): ~34%
bioavailability ([6]; 3600 mg/day given in 3 divided doses): ~33%
bioavailability ([6]; 4800 mg/day given in 3 divided doses): ~27%
increase in AUC and Cmax with food ([6]; food effect): 14%
bound to plasma protein ([6]; in vivo): Less than 3%
steady-state predose (Cmin) concentration in cerebrospinal fluid, % of corresponding plasma concentrations ([6]; patients with epilepsy): approximately 20%
inhibition of CYP1A2 (CYP1A2): No inhibition
inhibition of CYP2C9 (CYP2C9): No inhibition
inhibition of CYP2C19 (CYP2C19): No inhibition
inhibition of CYP2D6 (CYP2D6): No inhibition
inhibition of CYP2E1 (CYP2E1): No inhibition
inhibition of CYP3A4 (CYP3A4): No inhibition
Pain Relief (percent of reduction in pain), Diabetic Neuropathy (diabetic neuropathy pain [1]): <10%
pain relief (patient or physician testimony) (diabetic neuropathy pain [1]; listed as Neurontin): no substantial pain relief
pain relief (patient or physician testimony) (diabetic neuropathy pain [1]; listed as Nurontin): only curb the pain
side effects / tolerability (diabetic neuropathy pain [1]): substantial, negative side effects

CC(C)C[C@H](CN)CC(=O)O [Lyrica]
pain relief (patient or physician testimony) (diabetic neuropathy pain [1]): only minimal resolution of symptoms
side effects / tolerability (diabetic neuropathy pain [1]): substantial, negative side effects

CN(C)C[C@H]1CCCC[C@]1(O)c1cccc(O)c1 [M1 derivative]
half-life ([4]; after a single oral dose of 100 mg): 9 h
accumulation during multiple dose treatment [4]: approximately 2 fold

CCCC(C)(COC(N)=O)COC(=O)NC(C)C (stereo not shown) [Soma, Carisoprodol]
pain relief (testimony) [7]: only seemed to mask the pain
side effects [7]: quite drowsy

CN(C)CCC=C1c2ccccc2CCc2ccccc21 [amitriptyline]
share of patients with a good or moderate response (postherpetic neuralgia): about two-thirds
share of patients with a good or moderate response [8]: three-quarters
IC50 [9]: 20.2 µM
use-dependent block of Na+ current (cardiac Na+ channels; 0.4 μM, repetitive pulses at a frequency of 5 Hz, cardiac myocytes): profound use-dependent block
time constant of recovery from the use-dependent block (cardiac Na+ channels; cardiac Na+ channels): 13.6 s
use-dependent block during repetitive pulses (hH1 Na+ channels; 1 μM, 5 Hz): ~55%
IC50 (hH1 Na+ channels; inactivated channels, n=7, read-out: IC50, tonic block of inactivated hH1 channels): 0.58 ± 0.03 µM
IC50 (hH1 Na+ channels; resting channels, n=9, read-out: IC50, tonic block of resting hH1 channels): 24.8 ± 2 µM

COc1cc(CNC(=O)CCCCC=CC(C)C)ccc1O [capsaicin, 8-methyl-N-vanillyl-6-nonenamide]
effect on TNF-mediated activation of NF-κ-B [10]: blocked TNF-mediated activation of NF-κ-B
time to distribution to brain, spinal cord, liver and blood [11]: ≤ 20 min
absorption in the jejunum [12]: 85%
estimated daily exposure [13]: 0.064 mg/kg

CN(C)CCCN1c2ccccc2CCc2ccccc21 [imipramine]
IC50 [14]: ~6 µM

CC(C)C[C@H](CN)CC(=O)O [pregabalin]
endpoint mean pain score and proportion with at least a 50% reduction in pain score (pain score in patients; 8-week study, 50 and 100 mg three times a day): statistically significantly improved
endpoint mean pain score and proportion with at least a 50% reduction in pain score (pain score in patients; 8-week study, 100 or 200 mg three times a day, doses assigned by creatinine clearance): statistically significantly improved
endpoint mean pain score and proportion with at least a 50% reduction in pain score (pain score in patients; 13-week study, 75, 150, 300 mg twice daily, creatinine clearance greater than 60 mL/min, all doses): statistically significantly improved
endpoint mean pain score and proportion with at least a 50% reduction in pain score (pain score in patients; 100 and 200 mg three times a day): statistically significantly improved
discontinuation due to dizziness [15]: 3%
discontinuation due to somnolence [15]: 2%
patients who discontinued prematurely due to adverse reactions [15]: 9%
withdrawal due to each of asthenia, confusion, peripheral edema [15]: approximately 1%
patients who discontinued prematurely due to adverse reactions ([16]; 150-600 mg/day): 19%
discontinuation due to dizziness [16]: 6%
discontinuation due to somnolence [16]: 3%
withdrawal due to each of fatigue, headache, balance disorder, weight increased [16]: approximately 1%
